Measured values from PubChem BioAssay (NCI).
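GI50 is the concentration that inhibits growth by half. Definition used: TGI = concentration required for complete inhibition of growth.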

Key:
Experiment in all cases: growth of human tumour cells (NCI), 384-well format
[1] = system: UACC-257 melanoma
[2] = system: IGROV1 ovarian
[3] = system: HS 578T breast
[4] = system: SK-OV-3 ovarian
[5] = system: SK-MEL-5 melanoma
[6] = system: DU-145 prostate
[7] = system: HOP-62 NSCLC
[8] = system: HCT-15 colon
[9] = system: CCRF-CEM leukemia
[10] = system: MOLT-4 leukemia
[11] = system: HOP-92 NSCLC
[12] = system: MCF7 breast
[13] = system: MALME-3M melanoma
[14] = system: COLO 205 colon
[15] = system: KM12 colon
[16] = system: SK-MEL-28 melanoma
[17] = system: SW-620 colon
[18] = system: NCI/ADR-RES ovarian
[19] = system: SF-268 CNS
[20] = system: RXF 393 renal
[21] = system: RPMI-8226 leukemia
[22] = system: MDA-MB-231 breast
[23] = system: SK-MEL-2 melanoma
[24] = system: ACHN renal
[25] = system: NCI-H460 NSCLC
[26] = system: EKVX NSCLC
[27] = system: 786-0 renal
[28] = system: BT-549 breast
[29] = system: SNB-19 CNS
[30] = system: T-47D breast
[31] = system: A498 renal
[32] = system: SR leukemia
[33] = system: HT29 colon
[34] = system: SN12C renal
[35] = system: NCI-H322M lung
[36] = system: A549 NSCLC
[37] = system: NCI-H23 lung
[38] = system: OVCAR-3 ovarian
[39] = system: SF-539 CNS
[40] = system: OVCAR-4 ovarian
[41] = system: MDA-MB-435 melanoma
[42] = system: HL-60(TB) leukemia
[43] = system: UACC-62 melanoma
[44] = system: SNB-75 CNS
[45] = system: PC-3 prostate
[46] = system: NCI-H522 lung
[47] = system: MDA-MB-468 breast
[48] = system: OVCAR-8 ovarian
[49] = system: NCI-H226 lung
[50] = system: U251 glioblastoma
[51] = system: CAKI-1 renal
[52] = system: M14 melanoma
[53] = system: SF-295 CNS
[54] = system: TK-10 renal
[55] = system: OVCAR-5 ovarian
[56] = system: HCC-2998 colon

CC(C)(C)c1ccc(Oc2ccc(N)cn2)cc1
GI50 [1]: 36 µM
TGI [1]: > 100 µM
GI50 [2]: 97.3 µM
TGI [2]: > 100 µM
GI50 [3]: 29.5 µM
TGI [3]: > 100 µM
GI50 [4]: > 100 µM
TGI [4]: > 100 µM
GI50 [5]: 22.3 µM
TGI [5]: 51.8 µM
GI50 [6]: 64.3 µM
TGI [6]: > 100 µM
GI50 [7]: 33 µM
TGI [7]: > 100 µM
GI50 [8]: 29.4 µM
TGI [8]: > 100 µM
GI50 [9]: 302 nM
TGI [9]: 1240 nM
GI50 [10]: 4.83 µM
TGI [10]: 19.3 µM
GI50 [11]: 34.8 µM
TGI [11]: > 100 µM
GI50 [12]: 74.2 µM
TGI [12]: > 100 µM
GI50 [13]: 26.9 µM
TGI [13]: 72.9 µM
GI50 [14]: 38.6 µM
TGI [14]: 86.6 µM
GI50 [15]: 44.3 µM
TGI [15]: > 100 µM
GI50 [16]: > 100 µM
TGI [16]: > 100 µM
GI50 [17]: 85.7 µM
TGI [17]: > 100 µM
GI50 [18]: 36.4 µM
TGI [18]: > 100 µM
GI50 [19]: 26 µM
TGI [19]: > 100 µM
GI50 [20]: 21.8 µM
TGI [20]: 66.2 µM
GI50 [21]: 231 nM
TGI [21]: 563 nM
GI50 [22]: 28.4 µM
TGI [22]: > 100 µM
GI50 [23]: > 100 µM
TGI [23]: > 100 µM
GI50 [24]: > 100 µM
TGI [24]: > 100 µM
GI50 [25]: 32.7 µM
TGI [25]: > 100 µM
GI50 [26]: 44.2 µM
TGI [26]: > 100 µM
GI50 [27]: 24.7 µM
TGI [27]: > 100 µM
GI50 [28]: 12.6 µM
TGI [28]: 65 µM
GI50 [29]: > 100 µM
TGI [29]: > 100 µM
GI50 [30]: 31.2 µM
TGI [30]: > 100 µM
GI50 [31]: 46.5 µM
TGI [31]: > 100 µM
GI50 [32]: 14.3 µM
TGI [32]: 32.8 µM
GI50 [33]: 24.9 µM
TGI [33]: 57.7 µM
GI50 [34]: 57.7 µM
TGI [34]: > 100 µM
GI50 [35]: 68.2 µM
TGI [35]: > 100 µM
GI50 [36]: 20.4 µM
TGI [36]: > 100 µM
GI50 [37]: 29.1 µM
TGI [37]: 85.8 µM
GI50 [38]: 24.9 µM
TGI [38]: > 100 µM
GI50 [39]: 43.4 µM
TGI [39]: > 100 µM
GI50 [40]: 28.1 µM
TGI [40]: > 100 µM
GI50 [41]: 92.2 µM
TGI [41]: > 100 µM
GI50 [42]: 479 nM
TGI [42]: 2820 nM
GI50 [43]: > 100 µM
TGI [43]: > 100 µM
GI50 [44]: 22.1 µM
TGI [44]: > 100 µM
GI50 [45]: 43.5 µM
TGI [45]: > 100 µM
GI50 [46]: 14.7 µM
TGI [46]: 39.9 µM
GI50 [47]: 21 µM
TGI [47]: 57 µM
GI50 [48]: 52.1 µM
TGI [48]: > 100 µM
GI50 [49]: 10.8 µM
TGI [49]: 52.3 µM
GI50 [50]: 35.8 µM
TGI [50]: > 100 µM
GI50 [51]: 24.1 µM
TGI [51]: > 100 µM
GI50 [52]: > 100 µM
TGI [52]: > 100 µM
GI50 [53]: > 100 µM
TGI [53]: > 100 µM
GI50 [54]: 93 µM
TGI [54]: > 100 µM
GI50 [55]: > 100 µM
TGI [55]: > 100 µM
GI50 [56]: 17 µM
TGI [56]: 48.6 µM
